“Also recorded” adds a separate entry of the source.
What was measured:
Plasma corticosterone = assay type: in vivo, mouse; conditions: ABA mice
Procedure: For corticosterone, blood samples were obtained via retroorbital bleeding between 19:00 and 20:00. For alanine transaminase, aspartate transaminase and bilirubin, blood samples were collected by cardiac puncture of terminally anesthetized animals. All blood samples were collected in EDTA tubes (Microtainer with K2EDTA, BD, 365974). The tubes were centrifuged at 2,000×g at 4 °C for 20 min, and plasma was collected and stored at −80 °C until use. Plasma corticosterone levels were measured using Corticosterone ELISA kit (Enzo, ADI-900-097) according to the manufacturer's instructions. Kits used to measure alanine transaminase (EALT-100) and aspartate transaminase (EASTR-100) were purchased from Bioassay Systems. The bilirubin assay kit (MAK126) was purchased from Sigma Aldrich.

[1] = Liver toxicity (plasma ALT, AST, bilirubin) in endometriosis mice; assay type: in vivo, mouse; conditions: 6 weeks; for liver toxicity (plasma ALT, AST, bilirubin): 2.5 mg/kg i.p. once a week
Procedure: Blood samples were collected in EDTA tubes (Microtainer with K2EDTA, BD, 365974) by cardiac puncture of terminally anesthetized animals. The tubes were centrifuged at 2,000×g at 4 °C for 20 min, and plasma was collected and stored at −80 °C until use. Blood chemistry were measured according to the manufacturer's instructions. Kits used to measure alanine transaminase (EALT-100) and aspartate transaminase (EASTR-100) were purchased from Bioassay Systems. The bilirubin assay kit (MAK126) was purchased from Sigma Aldrich.

[2] = Energy expenditure and feeding of mice given Bobcat339; assay type: in vivo, mouse
TET3 = TET3 protein stability (cycloheximide) in MDMs; assay type: cell-based, human; conditions: 10 μM, with cycloheximide
Procedure: For TET protein stability assay of MDMs, cells in 24-well plates were incubated with vehicle or Bobcat339 at a final concentration of 10 μM for 3 h, followed by addition of cycloheximide (CHX, Cell Signaling, 2112) at a final concentration of 50 μg/mL. Proteins were harvested at 0, 2, 4, and 6 hours after addition of CHX.

Lin28 = Lin28 expression in mouse peritoneal macrophages; assay type: cell-based; conditions: 10 μM, 48 h
Procedure: For cultured mouse peritoneal macrophages, cells were primed with 30 ng/ml of TGF-β1 (R&D Systems, 7666-MB0-005) for 48 h (to increase TET3 expression) before Bobcat339 treatment. Bobcat339 (or DMSO) was added at a final concentration of 10 μM, followed by RNA and protein extraction at time points indicated in the figure legends.
Total RNAs were extracted from cells using PureLink RNA Mini Kit. 0.5-1 μg total RNA was reverse transcribed to cDNA in a reaction volume of 20 μL using PrimeScript RT Reagent Kit. Real-time quantitative PCR was performed in a 15 μL reaction volume containing 0.5-1 μL of cDNA using SsoAdvanced Universal SYBR Green Supermix in a Bio-Rad iCycler. Gene expression levels were normalized against RPLP0.

Agrp promoter = test: hMeDIP-qPCR (5hmC) at the Agrp promoter in mouse ARC; assay type: in vivo; conditions: leptin- vs. saline-treated
Procedure: To assess leptin effects on suppression of hunger-induced appetite, female Cas9+ mice injected with AAV or AAV-sgTet3 bilaterally into the ARC were fasted overnight for 22 h. On the second day, mouse leptin (L3772-1MG, Sigma Aldrich) was administrated at 5 mg/kg intraperitoneally at 10:00 and pre-weighed food was placed in the cage and monitored for the following 24 h. For ChIP studies, Cas9+ mice injected with AAV or AAVsgTet3 bilaterally into the ARC were fasted overnight for 22 h. On the second day, saline or leptin (5 mg/kg) was administrated intraperitoneally at 10:00. Two hours later, ARCs were isolated for ChIP-qPCR analysis. To examine leptin-induced protein-protein interactions, Cas9+ mice were fasted overnight for 22 h. […]
The experiments were carried out using the EpiQuik hMeDIP Kit (P-1038-48, Epigentek) according to the manufacturer's instructions. […] Sheared DNA fragments (ranged in size from 200-600 bps as assessed by agarose gel electrophoresis) were immunoprecipitated using the 5hmC rabbit polyclonal antibody from the kit. qPCR was performed in a 25 μl reaction containing 2.5 μl of the eluted DNA using iTAC SYBGreen in a Bio-Rad iCycler. The relative enrichments (after normalization against control IgG) of the indicated DNA regions were calculated using the Percent Input Method according to the manufacturer's instructions.

| Compound | plasma cortisol levels (Plasma corticosterone) | liver toxicity (plasma ALT, AST, bilirubin) [1] | liver toxicity (plasma ALT, AST, bilirubin) ([1]; listed as Bobcat) | liver toxicity ([1]; 3 mg/kg i.p. once a week) | feeding ([2]; drinking water or i.p.) | liver toxicity ([2]; drinking water or i.p.) | resting energy expenditure ([2]; drinking water or i.p.) | appetite stimulation by route ([2]; oral and intraperitoneal) | TET3 protein stability (TET3) | Lin28 expression (Lin28) | 5hmC in the Agrp promoter (Agrp promoter) |
| --- | --- | --- | --- | --- | --- | --- | --- | --- | --- | --- | --- |
| Nc1nc(=O)n(-c2cccc(-c3ccccc3)c2)cc1Cl [Bobcat339, 4-Amino-1-[1,1′-biphenyl]-3-yl-5-chloro-2(1H)-pyrimidinone] | reduced plasma cortisol levels | no evidence of liver toxicity; also recorded: no differences between the groups | no differences between the groups | no evidence of liver toxicity | induced hyperphagia | without showing evidence of liver toxicity | decreases resting energy expenditure | able to stimulate appetite via multiple routes of administration | reduced the steady-state level of TET3 much more dramatically than that of TET2 | decreased |  |
| leptin: adipose hormone; mouse leptin L3772-1MG or human leptin L4146-1MG, Sigma Aldrich |  |  |  |  |  |  |  |  |  |  | an increase in 5hmC in the Agrp promoter |

Reference: US20260355199A1, “COMPOSITIONS AND METHODS FOR TREATING OR PREVENTING NONALCOHOLIC STEATOHEPATITIS (NASH), ANOREXIA, DEPRESSION, ENDOMETRIOSIS, AND OTHER DISEASES OR DISORDERS” (priority 2022, published 2026)
